According to US9988430B2, “Stable GLP-1 based GLP-1/glucagon receptor co-agonists” (Novo Nordisk A/S, priority 2014, dated 2018):
*1 amine or outer side, *2 acyl side, *3 side chain or, on linkers, in order; H or OH if unused. Where a SMILES comes first, the peptide text is derived from it. Bridges are numbered along the chain shown (N, C = ends). Roman numbers before positions name the chains, in order. Side-chain parts run from the residue outwards. [ ]: non-standard residue; d: D form. The star is where a group is joined. C18 diacid = O=C(O)CCCCCCCCCCCCCCCCC(=O)*; γGlu = O=C(O)[C@H](CCC(=O)[*:2])N[*:1]; Desaminohistidyl = O=C(CCc1c[nH]cn1)*; AEEA = NCCOCCOCC(=O)O; Aib = CC(C)(N)C(=O)O

Key:
human GLP-1 receptor = molecular target: T1, human GLP-1 receptor (Homo sapiens, UniProt P43220); test: Assay (I)(a): GLP-1 receptor potency, CRE luciferase reporter gene assay in BHK cells; type: cell-based; conditions: BHK cells expressing human GLP-1 receptor, read-out: EC50 GLP-1R
T1 construct: expressed in transfected cells; host or cells: membranes of BHK cells, parent line BHKTS13, clone FCW467-12A
In short: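 BHK cells (clone FCW467-12A/KZ10-1), 5×10EE3/well, exposed 3 h at 37° C to compound at 1×10EE-13 to 1×10EE-6 M final in medium with 2% ovalbumin and 0.2% Pluronic F-68. Luciferase luminescence read; EC50 (pM) from four-parameter fit.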

[1] = Assay (V): chemical stability assessment by RP-UPLC; type: physicochemical; conditions: 14 days at 37° C. in phosphate buffer (pH 7.3)
Procedure: Assay (V): Chemical Stability Assessment
The purpose of this assay is to assess the chemical stability of the GLP-1 derivatives of the present invention in aqueous solutions.
Chemical stability of GLP-1 derivatives may be investigated by RP-UPLC separation and UV detection. Lyophilized samples are dissolved in a 8 mM Phosphate buffer pH 8.6, followed by adjustment to pH 7.3 using HCl to a final concentration of 333 μM. Samples are incubated for 14 days at 5° C. and 37° C. followed by RP-UPLC analysis. Purity is defined as the area percentage of the main peak in relation to the total area of all integrated peaks in each chromatogram. Purity loss, also referred to herein as chemical degradation, after 14 days at 37° C. is determined as the difference in purity between the samples incubated at 5° C. and 37° C., divided by the purity of the sample after incubation for 14 days at 5° C.
RP-UPLC analysis is performed using a Waters BEH130 2.1 mm×150 mm, 1.7 μm column operated at 50° C. and a flow rate of 0.4 mL/min using a mobile phase system consisting of A: 0.05% TFA in MQ-water, and B: 0.05% TFA in Acetonitrile. UV-detection is performed at 215 nm. The typical gradient profile used for most of the samples is shown below.
For some individual derivatives eluting at substantially different retention times compared with the majority of derivatives, some adjustments to the gradient profile are made to better enable purity assessment comparison across samples.

T1 sequence (P43220 24-463): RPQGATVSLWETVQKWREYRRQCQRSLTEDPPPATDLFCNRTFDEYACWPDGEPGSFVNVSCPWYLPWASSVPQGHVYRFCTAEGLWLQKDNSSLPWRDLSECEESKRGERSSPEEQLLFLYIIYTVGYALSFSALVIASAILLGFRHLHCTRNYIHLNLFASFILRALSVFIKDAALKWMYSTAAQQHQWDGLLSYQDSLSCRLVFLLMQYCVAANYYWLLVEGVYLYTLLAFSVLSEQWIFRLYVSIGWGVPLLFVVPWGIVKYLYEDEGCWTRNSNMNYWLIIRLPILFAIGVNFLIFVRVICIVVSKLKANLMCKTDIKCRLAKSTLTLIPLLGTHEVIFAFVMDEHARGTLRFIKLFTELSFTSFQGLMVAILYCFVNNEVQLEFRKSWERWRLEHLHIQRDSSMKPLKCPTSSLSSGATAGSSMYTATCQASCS

Row | EC50 (human GLP-1 receptor) | Chemical stability: Chemical degradation over 14 days at 37° C. [1] | SMILES
1 | 6 pM | 0.0% | CC[C@H](C)[C@H](NC(=O)[C@H](Cc1ccccc1)NC(=O)[C@H](CCC(=O)O)NC(=O)[C@H](CCCNC(=N)N)NC(=O)[C@H](C)NC(=O)[C@H](C)NC(=O)[C@H](CCC(N)=O)NC(=O)[C@H](CCC(=O)O)NC(=O)[C@H](CCC(=O)O)NC(=O)[C@H](CC(C)C)NC(=O)[C@H](Cc1ccc(O)cc1)NC(=O)[C@H](CCCNC(=N)N)NC(=O)[C@H](CO)NC(=O)[C@@H](NC(=O)[C@H](CC(=O)O)NC(=O)[C@H](CO)NC(=O)[C@@H](NC(=O)[C@H](Cc1ccccc1)NC(=O)[C@@H](NC(=O)CNC(=O)[C@H](Cc1c[nH]cn1)NC(=O)C(C)(C)NC(=O)CCc1c[nH]cn1)[C@@H](C)O)[C@@H](C)O)C(C)C)C(=O)N[C@@H](C)C(=O)N[C@@H](Cc1c[nH]c2ccccc12)C(=O)N[C@@H](CC(C)C)C(=O)N[C@@H](CC(C)C)C(=O)N[C@@H](CCCCNC(=O)CNC(=O)[C@H](CO)NC(=O)[C@H](CCC(=O)O)NC(=O)CNC(=O)[C@H](CO)NC(=O)CC[C@H](NC(=O)CC[C@H](NC(=O)CCCCCCCCCCCCCCCCC(=O)O)C(=O)O)C(=O)O)C(=O)N[C@H](C(N)=O)[C@@H](C)O [Example 7, N^ε34-[2-[[(2S)-2-[[(2S)-4-carboxy-2-[[2-[[(2S)-2-[[(4S)-4-carboxy-4-[[(4S)-4-carboxy-4-(17-carboxyheptadecanoylamino)butanoyl]amino]butanoyl]amino]-3-hydroxypropanoyl]amino]acetyl]amino]butanoyl]amino]-3-hydroxypropanoyl]amino]acetyl]-[Imp7,Aib8,His9,Arg18,Glu22,Arg26,Leu33,Thr35]-GLP-1-(7-35)-peptide amide] (I: Desaminohistidyl-[Aib]HGTFTSDVSRYLEEQAAREFIAWLLKT-NH2 / II: {C18 diacid-γGlu-γGlu}-SGESG; amide I:27-II:C)
2 | – | 1.6% | CC[C@H](C)[C@H](NC(=O)[C@H](Cc1ccccc1)NC(=O)[C@H](CCC(=O)O)NC(=O)[C@H](CCCNC(=N)N)NC(=O)[C@H](C)NC(=O)[C@H](C)NC(=O)[C@H](CCC(N)=O)NC(=O)CNC(=O)[C@H](CCC(=O)O)NC(=O)[C@H](CC(C)C)NC(=O)[C@H](Cc1ccc(O)cc1)NC(=O)[C@H](CCCNC(=N)N)NC(=O)[C@H](CO)NC(=O)[C@@H](NC(=O)[C@H](CC(=O)O)NC(=O)[C@H](CO)NC(=O)[C@@H](NC(=O)[C@H](Cc1ccccc1)NC(=O)[C@@H](NC(=O)CNC(=O)[C@H](Cc1c[nH]cn1)NC(=O)C(C)(C)NC(=O)CCc1c[nH]cn1)[C@@H](C)O)[C@@H](C)O)C(C)C)C(=O)N[C@@H](C)C(=O)N[C@@H](Cc1c[nH]c2ccccc12)C(=O)N[C@@H](CC(C)C)C(=O)N[C@@H](CC(C)C)C(=O)N[C@@H](CCCCNC(=O)CNC(=O)[C@H](CO)NC(=O)[C@H](CCC(=O)O)NC(=O)CNC(=O)[C@H](CO)NC(=O)CC[C@H](NC(=O)CC[C@H](NC(=O)CCCCCCCCCCCCCCCCC(=O)O)C(=O)O)C(=O)O)C(=O)N[C@H](C(N)=O)[C@@H](C)O [Example 8, N^ε34-[2-[[(2S)-2-[[(2S)-4-carboxy-2-[[2-[[(2S)-2-[[(4S)-4-carboxy-4-[[(4S)-4-carboxy-4-(17-carboxyheptadecanoylamino)butanoyl]amino]butanoyl]amino]-3-hydroxypropanoyl]amino]acetyl]amino]butanoyl]amino]-3-hydroxypropanoyl]amino]acetyl]-[Imp7,Aib8,His9,Arg18,Arg26,Leu33,Thr35]-GLP-1-(7-35)-peptide amide] (I: Desaminohistidyl-[Aib]HGTFTSDVSRYLEGQAAREFIAWLLKT-NH2 / II: {C18 diacid-γGlu-γGlu}-SGESG; amide I:27-II:C)
3 | – | 0.4% | CC[C@H](C)[C@H](NC(=O)[C@H](Cc1ccccc1)NC(=O)[C@H](CCC(=O)O)NC(=O)[C@H](CCCNC(=N)N)NC(=O)[C@H](C)NC(=O)[C@H](C)NC(=O)[C@H](CCC(N)=O)NC(=O)[C@H](CCC(=O)O)NC(=O)[C@H](CCC(=O)O)NC(=O)[C@H](CC(C)C)NC(=O)[C@H](Cc1ccc(O)cc1)NC(=O)[C@H](CCCCN)NC(=O)[C@H](CO)NC(=O)[C@@H](NC(=O)[C@H](CC(=O)O)NC(=O)[C@H](CO)NC(=O)[C@@H](NC(=O)[C@H](Cc1ccccc1)NC(=O)[C@@H](NC(=O)CNC(=O)[C@H](Cc1c[nH]cn1)NC(=O)C(C)(C)NC(=O)CCc1c[nH]cn1)[C@@H](C)O)[C@@H](C)O)C(C)C)C(=O)N[C@@H](C)C(=O)N[C@@H](Cc1c[nH]c2ccccc12)C(=O)N[C@@H](CC(C)C)C(=O)N[C@@H](CC(C)C)C(=O)N[C@@H](CCCCNC(=O)COCCOCCNC(=O)COCCOCCNC(=O)CC[C@H](NC(=O)CC[C@H](NC(=O)CCCCCCCCCCCCCCCCC(=O)O)C(=O)O)C(=O)O)C(=O)N[C@H](C(N)=O)[C@@H](C)O [Example 5, N^ε34-[2-[2-[2-[[2-[2-[2-[[(4S)-4-carboxy-4-[[(4S)-4-carboxy-4-(17-carboxyheptadecanoylamino)butanoyl]amino]butanoyl]amino]ethoxy]ethoxy]acetyl]amino]ethoxy]ethoxy]acetyl]-[Imp7,Aib8,His9,Lys18,Glu22,Arg26,Leu33,Thr35]-GLP-1-(7-35)-peptide amide] (Desaminohistidyl-[Aib]HGTFTSDVSKYLEEQAAREFIAWLLK([AEEA-AEEA-γGlu-γGlu-C18 diacid])T-NH2)
4 | – | 0.1% | CC[C@H](C)[C@H](NC(=O)[C@H](Cc1ccccc1)NC(=O)[C@H](CCC(=O)O)NC(=O)[C@H](CCCNC(=N)N)NC(=O)[C@H](C)NC(=O)[C@H](C)NC(=O)[C@H](CCCNC(=N)N)NC(=O)[C@H](C)NC(=O)[C@H](CCC(=O)O)NC(=O)[C@H](CC(C)C)NC(=O)[C@H](Cc1ccc(O)cc1)NC(=O)[C@H](CCCCN)NC(=O)[C@H](CO)NC(=O)[C@@H](NC(=O)[C@H](CC(=O)O)NC(=O)[C@H](CO)NC(=O)[C@@H](NC(=O)[C@H](Cc1ccccc1)NC(=O)[C@@H](NC(=O)CNC(=O)[C@H](Cc1c[nH]cn1)NC(=O)C(C)(C)NC(=O)CCc1c[nH]cn1)[C@@H](C)O)[C@@H](C)O)C(C)C)C(=O)N[C@@H](C)C(=O)N[C@@H](Cc1c[nH]c2ccccc12)C(=O)N[C@@H](CC(C)C)C(=O)N[C@@H](CC(C)C)C(=O)N[C@@H](CCCCNC(=O)CC[C@H](NC(=O)COCCOCCNC(=O)COCCOCCNC(=O)CC[C@H](NC(=O)CC[C@H](NC(=O)CCCCCCCCCCCCCCCCC(=O)O)C(=O)O)C(=O)O)C(=O)O)C(=O)NCC(=O)NCC(=O)NCC(=O)O [Example 31, N^ε34-[(4S)-4-carboxy-4-[[2-[2-[2-[[2-[2-[2-[[(4S)-4-carboxy-4-[[(4S)-4-carboxy-4-(17-carboxyheptadecanoylamino)butanoyl]amino]butanoyl]amino]ethoxy]ethoxy]acetyl]amino]ethoxy]ethoxy]acetyl]amino]butanoyl]-[Imp7,Aib8,His9,Lys18,Ala22,Arg23,Arg26,Leu33,Gly36]-GLP-1-(7-37)-peptide] (Desaminohistidyl-[Aib]HGTFTSDVSKYLEARAAREFIAWLLK([γGlu-AEEA-AEEA-γGlu-γGlu-C18 diacid])GGG-OH)
5 | 3 pM | – | CC[C@H](C)[C@H](NC(=O)[C@H](Cc1ccccc1)NC(=O)[C@H](CCC(=O)O)NC(=O)[C@H](CCCNC(=N)N)NC(=O)[C@H](C)NC(=O)[C@H](C)NC(=O)[C@H](CCCNC(=N)N)NC(=O)CNC(=O)[C@H](CCC(=O)O)NC(=O)[C@H](CC(C)C)NC(=O)[C@H](Cc1ccc(O)cc1)NC(=O)[C@H](CCCNC(=N)N)NC(=O)[C@H](CO)NC(=O)[C@@H](NC(=O)[C@H](CC(=O)O)NC(=O)[C@H](CO)NC(=O)[C@@H](NC(=O)[C@H](Cc1ccccc1)NC(=O)[C@@H](NC(=O)CNC(=O)[C@H](Cc1c[nH]cn1)NC(=O)C(C)(C)NC(=O)CCc1c[nH]cn1)[C@@H](C)O)[C@@H](C)O)C(C)C)C(=O)N[C@@H](C)C(=O)N[C@@H](Cc1c[nH]c2ccccc12)C(=O)N[C@@H](CC(C)C)C(=O)N[C@@H](CC(C)C)C(=O)N[C@@H](CCCCNC(=O)CC[C@H](NC(=O)CC[C@H](NC(=O)COCCOCCNC(=O)CC[C@H](NC(=O)CC[C@H](NC(=O)CCCCCCCCCCCCCCCCC(=O)O)C(=O)O)C(=O)O)C(=O)O)C(=O)O)C(=O)NCC(=O)N[C@@H](C)C(=O)NCC(=O)O [Example 35, N^ε34-[(4S)-4-carboxy-4-[[(4S)-4-carboxy-4-[[2-[2-[2-[[(4S)-4-carboxy-4-[[(4S)-4-carboxy-4-(17-carboxyheptadecanoylamino)butanoyl]amino]butanoyl]amino]ethoxy]ethoxy]acetyl]amino]butanoyl]amino]butanoyl]-[Imp7,Aib8,His9,Arg18,Arg23,Arg26,Leu33,Ala36]-GLP-1-(7-37)-peptide] (Desaminohistidyl-[Aib]HGTFTSDVSRYLEGRAAREFIAWLLK([γGlu-γGlu-AEEA-γGlu-γGlu-C18 diacid])GAG-OH)
